Here are results for 3 molecules from patent US5196412A, “Gallium compounds” (Johnson Matthey, Inc., priority 1991, dated 1993).

Structures are written as SMILES. Read-outs that look alike come from different tables or passages of the source.

For data set [1] the following is noted: pH 4.5-7; cited from earlier work.
The subject of the next data set is gastro-intestinal tract. Particulars: pH 4.5-7; cited from earlier work.
Data set [2] in a line: oral absorption of gallium in rats (4-hour plasma gallium AUC). Type of data set: in vivo, Male Sprague Dawley rats. To be noted: rat, 0.067 mmol/kg, 0-4 hours, absorption from the intestine. As for the experimental part: According to the invention, compounds were tested for oral absorption in rats. Male Sprague Dawley rats weighing 150-225 g were purchased from Harlan Sprague Dawley, Inc. (Indianapolis, Ind.). The gallium standard solution is from Aldrich Chemical Co (Milwaukee, Wis.). Metofane is a product from Pitman-Moore (Mundelein, Ill.), and all other chemicals are commercially available. Gallium test compounds were dissolved in 18 megaohm water (Millipore, Bedford, Mass.) or suspended in 0.5% carboxymethyl cellulose in 5% ethanol, if the compound was not water soluble. The suspensions were sonicated at room temperature for about 5 minutes. […]
Sutures were made with 3-4 stitches with 3-0 silk surgical thread (Ethicon Inc, Somerville, N.J.). […] The blood was placed in 1 ml Eppendorf tubes precoated with 50 μl heparin (1,000 U/ml and air dried, so there was no blood dilution involved. The plasma was recovered after the blood was centrifuged for 2 minutes in a Fischer Micro-centrifuge, Model 235B, and its gallium content measured by a Varian Flameless Atomic Absorption Spectrometer. The standard curve was linear in the gallium concentrations of 5-100 ng/ml. The data under the […] versus time curve (AUC) for 0-4 hours was estimated. […]

In another data set the test system is renal toxicity. Particulars: cited from earlier work.
In the next data set the test system is bone. To be noted: cited from earlier work.
Data set [3] has as its system cancer-associated hypercalcemia. Particulars: cited from earlier work.

In the case of `[Ga+3]` [gallium(III) aquo-ion], the hydrolysis entry in data set [1] is “extensively hydrolysed to insoluble hydroxides”. Besides, the absorption entry with gastro-intestinal tract was “very poorly absorbed”.

Take `O=[N+]([O-])[O-].O=[N+]([O-])[O-].O=[N+]([O-])[O-].[Ga+3]` [Ga(NO3)3, gallium nitrate]: the “4-hour plasma gallium AUC” value in data set [2] is 897 (ng//ml)h.

As for `[Ga]` [gallium], the renal toxicity entry in the data set with renal toxicity (i.v. bolus) is “renal toxicity is dose-limiting”. Also, the renal toxicity entry with renal toxicity (seven day continuous i.v. infusion, cancer-associated hypercalcemia) is on record as “showed no renal toxicity”. For the same molecule, in the data set with bone, the bone strength entry is recorded as “increases bone strength” and the “resorption of calcium from bone” value is listed as “inhibiting the resorption of calcium from bone”. In data set [3] (patients with hypercalcemia of malignancy), the serum calcium entry was “reduce serum calcium”. In addition, the “efficacy in cancer-associated hypercalcemia” value in data set [3] (seven day continuous i.v. infusion) is “effective”.
